In ChEMBL document CHEMBL5244222, “A comprehensive review on xanthone derivatives as α-glucosidase inhibitors” (Eur J Med Chem, 2018):
Values after ≈ are worked out from the molar mass of the structure shown. One block for each compound: values may come before it.

Key:
Format in all cases: protein assay
Alpha-glucosidase [1] = target: T1, Alpha-glucosidase (Saccharomyces cerevisiae S288c, UniProt P53341+P38158+P07265); assay: Inhibition of Saccharomyces cerevisiae alpha-glucosidase using PNPG as substrate preincubated for 15 mins followed by substrate addition and measured after 30 mins by spectrophotometric assay
Alpha-glucosidase [2] = target: T1, Alpha-glucosidase; assay: Inhibition of Saccharomyces cerevisiae alpha-glucosidase using PNPG as substrate incubated for 30 mins by spectrophotometric assay
Alpha-glucosidase [3] = target: T1, Alpha-glucosidase; assay: Mixed-type inhibition of Saccharomyces cerevisiae alpha-glucosidase using PNPG as substrate incubated for 30 mins by Lineweaver-Burk double-reciprocal plot analysis
Alpha-glucosidase [4] = target: T1, Alpha-glucosidase; assay: Inhibition of Saccharomyces cerevisiae alpha-glucosidase using maltose as substrate incubated for 30 mins by spectrophotometric assay
Alpha glucosidase [5] = target: T2, Alpha glucosidase (Homo sapiens, UniProt O43451+P10253+P14410+Q2M2H8); assay: Inhibition of alpha-glucosidase (unknown origin) using PNPG as substrate incubated for 30 mins by absorbance assay
Alpha glucosidase [6] = target: T2, Alpha glucosidase; assay: Inhibition of alpha-glucosidase (unknown origin) at 100 uM
Alpha-glucosidase [7] = target: T1, Alpha-glucosidase; assay: Inhibition of yeast alpha-glucosidase assessed as release of p-nitrophenol using PNPG as substrate preincubated for 10 mins followed by substrate addition and measured after 35 mins by microplate photometer analysis
Alpha-glucosidase [8] = target: T1, Alpha-glucosidase; assay: Inhibition of yeast alpha-glucosidase using p-nitrophenyl-alpha-D-glucopyranoside as substrate incubated for 30 mins by spectrophotometric assay
Alpha-glucosidase [9] = target: T1, Alpha-glucosidase; assay: Inhibition of Saccharomyces cerevisiae alpha-glucosidase assessed as release of p-nitrophenol using pNPG as substrate preincubated for 15 mins followed by substrate addition and measured after 15 mins by plate reader analysis

IC50 (Alpha-glucosidase [1]): 76 µM
Compound: COc1c(CC=C(C)C)c(O)c2c(=O)c3c(O)ccc(O)c3oc2c1CC=C(C)C

IC50 (Alpha-glucosidase [2]): 30.5 µM
Ki (Alpha-glucosidase [3]): 23 µM
IC50 (Alpha-glucosidase [4]): 102.5 µM
Compound: C=C(C)/C=C/c1c(OC)c(O)cc2oc3cc4c(c(O)c3c(=O)c12)CC(O)C(C)(C)O4 (stereo unspecified)

IC50 (Alpha-glucosidase [2]): 14.4 µM
Ki (Alpha-glucosidase [3]): 14.8 µM
IC50 (Alpha-glucosidase [4]): 192 µM
Compound: C=C(C)/C=C/c1c(OC)cc2oc3cc(O)c(OC)c(/C=C/C(=C)C)c3c(=O)c2c1O

IC50 (Alpha glucosidase [5]): 39 µM
Compound: O=c1c2c(O)cc(O)cc2oc2cc(O)cc(O)c12

IC50 (Alpha glucosidase [5]): 44.5 µM
Compound: COc1cc(O)c2c(=O)c3c(OC)c(O)c(O)cc3oc2c1

inhibition (Alpha glucosidase [6]): 31%
Compound: CC(C)=CCOc1cc(O)c2c(=O)c3ccccc3oc2c1

IC50 (Alpha-glucosidase [1]): 227 µM
Compound: CC(C)=CC/C(C)=C/Cc1c(O)c(CC=C(C)C)c2oc3c(O)ccc(O)c3c(=O)c2c1O

IC50 (Alpha-glucosidase [7]): 70.3 µM
IC50 (Alpha-glucosidase [8]): 18.2 µM
Compound: COc1c(O)cc2oc3cc(O)c(C/C=C(\C)COC(C)=O)c(O)c3c(=O)c2c1C/C=C(/C)CC=C(C)C

IC50 (Alpha-glucosidase [2]): 21 µM
Ki (Alpha-glucosidase [3]): 18.1 µM
IC50 (Alpha-glucosidase [4]): 191.2 µM
Compound: C=C(C)C1Cc2c(cc3oc4cc(O)c(OC)c(CC=C(C)C)c4c(=O)c3c2O)O1 (stereo unspecified) [MANGOSTENONE F]

IC50 (Alpha glucosidase [5]): 26.3 µM
Compound: C=Cc1cc2oc3cc(O)cc(O)c3c(=O)c2c(OC)c1O

IC50 (Alpha-glucosidase [2]): 5 µM
IC50 (Alpha-glucosidase [8]): 11.4 µM
Ki (Alpha-glucosidase [3]): 7.3 µM
IC50 (Alpha-glucosidase [4]): 53.3 µM
Compound: C=C(C)/C=C/c1c(O)cc2oc3cc(O)c(OC)c(/C=C/C(=C)C)c3c(=O)c2c1O

IC50 (Alpha-glucosidase [7]): 1.7 µM
Compound: C=C(C)/C=C/c1c(O)cc2oc3cc(O)c(O)c(C/C=C(\C)CC=C(C)C)c3c(=O)c2c1O

inhibition (Alpha glucosidase [6]): 34.5%
Compound: COc1cc(OC/C=C(\C)C/C=C(\C)C/C=C(\C)C/C=C(\C)C/C=C(\C)C/C=C(\C)C/C=C(\C)C/C=C(\C)CC=C(C)C)c2c(=O)c3c(O)ccc(OC)c3oc2c1

IC50 (Alpha-glucosidase [7]): 53.5 µM
Compound: C=C(C)/C=C/c1c(O)cc2oc3c(/C=C/C(=C)C)c(O)c(OC)cc3c(=O)c2c1O

IC50 (Alpha-glucosidase [2]): 9.8 µM
Ki (Alpha-glucosidase [3]): 8.1 µM
IC50 (Alpha-glucosidase [4]): 85.7 µM
Compound: C=C(C)/C=C/c1c(O)cc2oc3cc(O)c(OC)c(CC(=O)C(=C)C)c3c(=O)c2c1O

Compound: O=c1c2cc(O)ccc2oc2cccc(O)c12
IC50 (Alpha-glucosidase [1]): 145 µM
IC50 (Alpha-glucosidase [9]): 35.8 µg/mL (≈ 157 µM)

IC50 (Alpha-glucosidase [7]): 9.4 µM
Compound: C=C(C)/C=C/c1c(OC)cc(O)c2c(=O)c3ccc(O)c(O)c3oc12

inhibition (Alpha glucosidase [6]): 30.9%
Compound: COc1cc(OC/C=C(\C)CC=C(C)C)c2c(=O)c3c(O)ccc(OC)c3oc2c1

IC50 (Alpha-glucosidase [2]): 21.5 µM
Ki (Alpha-glucosidase [3]): 12.3 µM
IC50 (Alpha-glucosidase [4]): 137.2 µM
Compound: C=C(C)/C=C/c1c(O)c(CC=C(C)C)c2oc3c(O)cccc3c(=O)c2c1O

IC50 (Alpha-glucosidase [2]): 1.5 µM
Ki (Alpha-glucosidase [3]): 1.4 µM
IC50 (Alpha-glucosidase [4]): 17.5 µM
Compound: C=C(C)/C=C/c1c(O)cc2oc3cc(O)c(O)c(/C=C/C(=C)C)c3c(=O)c2c1O

IC50 (Alpha-glucosidase [7]): 14.1 µM
Compound: C=C(C)/C=C/c1c(O)cc(O)c2c(=O)c3c(C/C=C(/C)CC=C(C)C)c(OC)c(O)cc3oc12

inhibition (Alpha glucosidase [6]): 43.1%
Compound: CC(C)=CC/C(C)=C/COc1cc(O)c2c(=O)c3ccccc3oc2c1

IC50 (Alpha-glucosidase [7]): 28 µM
IC50 (Alpha-glucosidase [8]): 168.7 µM
Compound: COc1c(O)cc2oc3cc(O)c(C/C=C(\C)CO)c(O)c3c(=O)c2c1C/C=C(/C)CC=C(C)C

inhibition (Alpha glucosidase [6]): 42.1%
Compound: COc1cc(OCC=C(C)C)c2c(=O)c3c(O)ccc(OC)c3oc2c1

IC50 (Alpha-glucosidase [7]): 10.7 µM
IC50 (Alpha-glucosidase [8]): 20.7 µM
Compound: C=C(C)/C=C/c1c(O)cc2oc3cc(O)c(OC)c(C/C=C(\C)CC=C(C)C)c3c(=O)c2c1O

IC50 (Alpha glucosidase [5]): 35.2 µM
Compound: O=c1c2ccccc2oc2cc(O)cc(O)c12

IC50 (Alpha-glucosidase [7]): 12.4 µM
Compound: COc1cc(O)c2c(=O)c3c(C/C=C(\C)CCC=C(C)C)c(OC)c(O)cc3oc2c1

IC50 (Alpha-glucosidase [9]): 77.3 µg/mL (≈ 319 µM)
Compound: COc1ccc2oc3ccc(O)cc3c(=O)c2c1

IC50 (Alpha-glucosidase [9]): 48.5 µg/mL (≈ 178 µM)
Compound: COc1ccc2oc3ccc(O)cc3c(=O)c2c1OC

inhibition (Alpha glucosidase [6]): 66.2%
Compound: COc1cc(OC/C=C(\C)C/C=C(\C)CC=C(C)C)c2c(=O)c3c(O)ccc(OC)c3oc2c1

IC50 (Alpha-glucosidase [7]): 7.8 µM
Compound: C=C(C)/C=C/c1cc(O)c(O)c2oc3c(C/C=C(/C)CC=C(C)C)c(OC)cc(O)c3c(=O)c12

IC50 (Alpha glucosidase [5]): 23.2 µM
Compound: O=c1c2c(O)cc(O)cc2oc2ccc(O)c(O)c12
